“Also recorded” adds a separate entry of the source. Ends that are not written are not given here.
Legend:
[1] = Peptide solubility, filtration assay with AAA; assay type: physicochemical; conditions: pH 7.4
[2] = test system: Aβ42-induced toxicity in differentiated PC-12 cells; conditions: cell-viability screen; cited from earlier work

Substance	Max. solubility [1] [µM]	toxicity of the peptide itself (in words) [2]	other results
AEDVGSNKGA [Aβ(21–30)]	129 ± 5		
IGLMVGGVVIA [Aβ(32–42)]		slight toxicity	
KGAIIGLMVGGVVIA [Aβ(28–42)]		highly toxic itself; also recorded: higher toxicity than Aβ42 itself	
LMVGGVV [Aβ(34–40)]	169 ± 13		
VVIA [Aβ(39–42)]			inhibition of Aβ42-induced toxicity (in words) [2]: strongest inhibitors
